According to patent US20050096360A1, “Inhibitors of semicarbazide-sensitive amine oxidase (SSAO) and VAP-1 mediated adhesion useful for treatment of diseases” (priority 2003, published 2005):
Counter-ions that a name gives are not always drawn.

Assays:
[1] = test system: adhesion of human PBMCs to rat HEC transfected with full-length human SSAO/VAP-1; assay: In vitro adhesion of PBMCs to SSAO/VAP-1-transfected high endothelial cells; type: cell-based; details: inhibitors at IC100 concentrations, antibody 10 μg/ml; 3 hr at 37° C.
Protocol: The studies in this Example were carried out in order to determine whether SSAO/VAP-1 transfected into endothelial cells retained the adhesion function and whether it played any role in the adhesion of freshly isolated human PBMCs to these cells. Moreover, the studies were also designed to determine whether blocking of SSAO/VAP-1 would have an impact on the level of adhesion between these two cell types. Adhesion assays were performed using cells labeled with the fluorescent dye Calcein-AM (Molecular Probes, OR, USA) as per the manufacturer's instructions. Briefly, rat lymph node high endothelial cells (HEC; isolation and culture was described in Ager, A. (1987) J. Cell Sci. 87: 133) were plated overnight in 96-well plates (2,000 cells/well). PBMCs (peripheral blood mononuclear cells) (1×10^7) were labeled with 1 ml of 10 μM Calcein-AM for 1 hr at 37° C., washed three times with RPMI, and added to the 96 well plates containing monolayers of HEC cells mock-transfected or transfected with full-length human SSAO/VAP-1 (60,000 PBMCs were plated per well containing 2,000 HEC cells). Adhesion was carried out for 3 hr at 37° C. Non-adherent cells were removed by washing three times with RPMI and fluorescence was measured in a fluorescence plate reader at an excitation wavelength of 485 nm and emission wavelength of 530 nm. Several controls were included, such as HEC cells and PBMCs (labeled and unlabeled) alone.
(§1) These studies were repeated using the adhesion assay as described above to evaluate the inhibitors of the invention. Adhesion blockers used included an anti-human VAP-1 monoclonal antibody (Serotec, Oxford, UK), neuramidase (a sialidase, because SSAO/VAP-1 is a sialoglycoprotein; Sigma), and several function-blocking antibodies to rat adhesion molecules (CD31-PECAM, CD54-ICAM-1, […]-P Selectin). […] Antibodies (10 μg/ml) and neuramidase (5 mU) were incubated with the HECs for 30 min at 37° C.; excess antibody was washed away prior to the addition of the labeled PBMCs. Small-molecule inhibitors were pre-incubated the same way at IC100 concentrations, but the amounts present in the supernatant were not washed away to preserve the IC100 concentration during the adhesion step.

SSAO = assay: IC100 concentrations of SSAO inhibitors used in the adhesion assay; type: biochemical; details: FIG. 7 legend
From the text: FIG. 7 depicts the effect of blockage of SSAO/VAP-1 on binding between peripheral blood mononuclear cells (PBMCs) and high endothelial cells (HEC). FIG. 7A is a control experiment showing the effect of various compounds used for treatment on the adhesion of PBMCs to mock-transfected high endothelial cells; a non-treated control is included for comparison (MNT). FIG. 7B is a control experiment showing the effect of various compounds used for treatment on the adhesion of PBMCs to high endothelial cells transfected with VAP-1; a non-treated control is included for comparison (VNT).
as §1

[2] = test system: relapsing EAE in SJL/J mice; assay: Chronic relapsing EAE (model of chronic multiple sclerosis); type: in vivo; details: 10 mg/kg i.p. bid for 53 days
Protocol: An analysis of the use of VAP-1/SSAO inhibitors to treat inflammatory diseases of the CNS is performed through the use of a relapsing experimental autoimmune encephalomyelitis model (EAE) in SJL/J mice.
To examine the role of VAP-1 as a major regulator of lymphocyte recruitment to the CNS, VAP-1/SSAO inhibitor was evaluated in a chronic relapsing EAE model.
Then animals were monitored for signs of paralysis according to a 0-5 scale of scoring system as follows: • 0.5 partial tail weakness • 1 limp tail or waddling gait with tail tonicity; • 1.5 waddling gait with partial tail weakness • 2 waddling gait with limp tail (ataxia); • 2.5 ataxia with partial limb paralysis; • 3 full paralysis of one limb; • 3.5 full paralysis of one limb with partial paralysis of second limb; • 4 full paralysis of two limbs; • 4.5 moribund; • 5 death.
The results are expressed as mean clinical score (FIG. 9A), % incidence (number of mice with any paralysis/10 mice) (FIG. 9B), % mice with chronic disease (mice with at least one relapse) (FIG. 9C), and cumulative total number of relapses (FIG. 9D).

[3] = test system: oxazolone-induced colitis in SJL/J mice
Protocol: Oxazolone colitis is induced as described (Fuss I. J. et al. (2002) J. Immunol. 168: 900). Briefly, mice are pre-sensitized by skin epicutaneous application of 3% oxazolone (4-ethoxymethylene-2-phenyl-2oxazolin-5-one, Sigma) in 100% EtOH (150 μl) on day 0, followed by intrarectal administration of 1% oxazolone in 50% EtOH (100 μl) to anesthetized SJL/J male mice on day 5 through a 3.5 F catheter inserted 4 cm proximal to the anal verge. Mice are divided in three treatment groups and injected i.p. twice a day with: PBS and a compound of the invention. Injections are initiated at day 0 and are continued through day 7 or the end of the study.
A study was carried out using the protocol in Example 20 for oxazolone-induced colitis. Injections were initiated at day 0 and were continued through the end of the study. Disease progression was evaluated for 12 days (6 days after intrarectal administration) by monitoring survival rates and body weight, as well as by macroscopic evidence of colitis (i.e. rectal prolapse, colon size, colon weight). (2-phenylallyl)hydrazine was administered at 10 mg/kg, i.p. twice a day, starting on the day of skin pre-sensitization (day 0). […] Kaplan-Meyer survival curves and unpaired t tests were calculated using GraphPad Prism software (San Diego, Calif.).
Thus, animals from a similar study were sacrificed seven days after initial sensitization and their colons removed and fixed in […]. Tissue processing and analysis were performed blindly at a contract laboratory (Pathology Associates, Frederick, Md.). Briefly, after paraffin embedding 5 μm sections were cut and stained with hematoxylin and eosin. Three cross sections were taken from each animal at 1 cm (section 1), 3 cm (section 2), and 6 cm (section 3) from the anus. The degrees of ulceration, inflammation (in mucosa, submucosa, serosa, and outer muscular layers) and epithelial injury (including mucosal and submucosal abscess, submucosal fibrosis, glandular distortion and mucosal and submucosal edema/hemorrhage), were graded semiquantitatively as 0—absent; 1—minimal; 2—mild; 3—moderate; 4—marked. […] Kaplan-Meyer survival curves were calculated using GraphPad Prism software (San Diego, Calif.).

[4] = 10 mg/kg i.p. twice a day from day 0, vs vehicle
[5] = day 7, 20 mg/kg/day from day 0, section 2

| SMILES | number of PBMCs adherent to SSAO/VAP-1 transfected HECs [1] | IC100 (SSAO) (SSAO) | cumulative number of relapses ([2]; p<0.0001 vs buffer) | incidence of chronic disease (mice with at least one relapse) ([2]; p<0.0001 vs buffer) | overall clinical severity ([2]; p<0.005 vs buffer) | body weight loss [3, 4] | survival rates [3, 4] | inflammatory index (histology) [3, 5] | ulceration index (histology) [3, 5] |
| --- | --- | --- | --- | --- | --- | --- | --- | --- | --- |
| C=C(CNN)c1ccc(F)cc1.Cl [Example 8, N-[2-(4′-fluorophenyl)-allyl]-hydrazine Hydrochloride] | reduced | 250 nM |  |  |  |  |  |  |  |
| C=C(CNN)c1ccccc1 [Example 2, Hydrochloride] | reduced | 150 nM | statistically significant reduction | significant lower | statistically significant reduction | significantly improved | significantly improved | significant effect | significant effect |
